How the values were obtained:
[1] = Cation titration followed by absorbance or fluorescence excitation spectra: K⁺ binding; conditions: inert background cations such as tetramethylammonium or Cs⁺, high pH
Method: (§1) • Footnote a: For molecular structures, see Fig. 1. • Footnote b: Except where otherwise noted, these dissociation constants were measured with the chelator dissolved in 0.1 M tetramethylammonium chloride, at a pH held high enough with 1-5 mM tris(hydroxymethyl)aminomethane for protonation to be insignificant. The absorbance spectrum, or the fluorescence excitation spectrum for those compounds (2GG, 2NN, 2OO, 2PP, 3NN) with acronyms was measured as a function of the concentration of cation added as a solid or concentrated aqueous solution of the halide salt. No correction has been made for the changing ionic strength of the solution, which started from 0.1 M and increased, but the absorbances and fluorescence amplitudes were applied for dilution of the dye and any slight quenching due to high concentrations of Cl⁻. • Footnote c: These protonation constants were determined in 0.1 M tetramethylammonium chloride, 10 mM tris(hydroxymethyl)aminomethane, titrated with 5 M H₃PO₄ to successively lower pH values measured with a Radiometer PHM84 meter. […] The first number is the wavelength in nanometers, followed in parentheses by 10⁻³ x the corresponding extinction coefficient, M⁻¹cm⁻¹. […] Emission maxima are not corrected for the spectral sensitivity of the emission detection. Quantum efficiencies were measured (13) by comparing the integral of the corrected emission spectrum with the corresponding integral for a solution of quinine bisulfate in 1 N H₂SO₄ of matched absorbance at the excitation wavelength.
Affinities for other cations were usually measured by titrating aqueous solutions of the indicator with metal chlorides added either as solid or from concentrated stock solutions, taking care to minimize dilution and correct for it. […] This convenient titration procedure had the slight disadvantage that the ionic strength was not constant, especially when large quantities of a salt had to be added due to weak affinities. […]

[2] = Cation titration followed by absorbance or fluorescence excitation spectra: Ca²⁺ binding; conditions: 0.1 M tetramethylammonium chloride, 1-5 mM tris(hydroxymethyl)aminomethane, high pH, read-out: Dissociation constants (Kd) in mM for Ca²⁺
Method: as §1
(§2) Affinities for other cations were usually measured by titrating aqueous solutions of the indicator with metal chlorides added either as solid or from concentrated stock solutions, taking care to minimize dilution and correct for it. A convenient way to mass-produce premeasured micromole to millimole aliquots of solid NaCl or KCl was to pipet saline solutions into polypropylene micro test tubes and evaporate the water in an oven. The standard ionic background was again 100 mM tetramethylammonium chloride, usually with a few mM of tris(hydroxymethyl)-aminomethane base to hold the pH high enough (pH 8-9) to insure that protonation was negligible. This convenient titration procedure had the slight disadvantage that the ionic strength was not constant, especially when large quantities of a salt had to be added due to weak affinities. […] When constant ionic strength was desired, the chelator was made up at identical concentrations in matched solutions of NaCl, KCl, or tetramethylammonium chloride, then these stocks were mixed in the desired proportions. All measurements were made at room temperature (22°, ±2° C).

[3] = Cation titration followed by absorbance or fluorescence excitation spectra: Li⁺ binding; conditions: for Kd: 0.1 M tetramethylammonium chloride, 1-5 mM tris(hydroxymethyl)aminomethane, high pH, read-out: Dissociation constants (Kd) in mM for Li⁺
Method: as §1, §2

[4] = Non-specific quenching of fluorescence by CsCl; type: physicochemical
Method: Selectivities of SBFP and SBFI against other cations are also adequate (Table I). […] Ratioing therefore not only normalizes for amount of dye in the optical path but also improves the discrimination against pH changes. […] Dissociation constants for Mg²⁺ and Ca²⁺ are high enough (about 60 mM and 38 mM respectively) for cytosolic levels of those ions to have insignificant effect. Curiously, Ca²⁺ is unique in causing a large hypsochromic shift of the emission peak, to 432 nm. All the above-mentioned salts except tetramethylammonium seem to cause a slight non-specific quenching of SBFI at very high concentrations. For example, CsCl causes no spectral shift at all, but 100, 200, and 500 mM CsCl depress the fluorescence by 9, 14, and 21% from the metal-free level. This effect is not a heavy-atom effect of Cs, since large excesses of Li⁺, Na⁺, and K⁺ also slightly quench their SBFI complexes. It may represent weak quenching by Cl⁻, since acetate and fluoride gave much less of the effect.

[5] = physchem; conditions: 0.1 m tetramethylammonium chloride
Method: (§3) • Footnote a: For molecular structures, see Fig. 1. • Footnote b: Except where otherwise noted, these dissociation constants were measured with the chelator dissolved in 0.1 M tetramethylammonium chloride, at a pH held high enough with 1-5 mM tris(hydroxymethyl)aminomethane for protonation to be insignificant. […] No correction has been made for the changing ionic strength of the solution, which started from 0.1 M and increased, but the absorbances and fluorescence amplitudes were applied for dilution of the dye and any slight quenching due to high concentrations of Cl⁻. • Footnote c: These protonation constants were determined in 0.1 M tetramethylammonium chloride, 10 mM tris(hydroxymethyl)aminomethane, titrated with 5 M H₃PO₄ to successively lower pH values measured with a Radiometer PHM84 meter.
(§4) Proton dissociation constants of the chelators were measured by spectrophotometry or spectrofluorometry of buffered solutions, containing either 100 mM tetramethylammonium chloride as inert supporting electrolyte, or 121.5 mM K⁺, 13.5 mM Na⁺, and 1 mM Mg²⁺ to simulate the cation environment of vertebrate cytoplasm (14). Traces of UV-absorbing impurities in the tetramethylammonium chloride (Alfa Inorganics) were removed by filtration through acid-­washed activated charcoal. The concentration of the tetramethylammonium chloride was then measured by chloride titration, and the absence of significant Na⁺ contamination was verified with a sodium-selective glass electrode (Microelectrodes Inc.). When the chelators contained two protonatable nitrogens, the curve of absorbance or fluorescence versus pH was analyzed by computerized least-squares fitting to the equations for two arbitrary proton equilibria (15), with the added assumption that the two protonations each caused the same change in extinction coefficient or fluorescence.

[6] = Proton dissociation constants in 0.1 M tetramethylammonium chloride; conditions: 10 mM Tris titrated with 5 M H₃PO₄
Method: as §3, §4

K⁺ affinity [1]: 7 M⁻¹ | Kd ([2]; listed as 2PP (SBFI)): 38 mM | Kd ([2]; listed as SBFI): ~38 mM | Li⁺ affinity [3]: 15 M⁻¹ | Kd ([3]; listed as 2PP (SBFI)): 68 mM | Kd ([3]; listed as SBFI): 67 mM | pKa [5]: 6.1 | pKa ([6]; first value printed (highest pKa, 1st proton), listed as 2PP (SBFI)): 5.89 | pKa ([6]; second value (second protonation)): 5.19
Structure (SMILES): COc1cc2cc(-c3ccc(C(=O)O)cc3C(=O)O)oc2cc1N1CCOCCOCCN(c2cc3oc(-c4ccc(C(=O)O)cc4C(=O)O)cc3cc2OC)CCOCC1 [Compound 2PP, N,N-bis-(2-(2,4-dicarboxyphenyl)-5-methoxybenzofuran-6-yl)-diaza[15]-crown-5]
depression of fluorescence from the metal-free level ([4]; 100 mM CsCl): 9% | depression of fluorescence from the metal-free level ([4]; 200 mM CsCl): 14% | depression of fluorescence from the metal-free level ([4]; 500 mM CsCl): 21%
